Experiments:
[1] = test system: db/db mice with type 2 diabetes; assay: Effect on albumin in urine of db/db mice with type 2 diabetes; type: in vivo, mouse; settings: 0.3 mg/kg po once per day for one week
Description: Test Example 7: Test for Investigation of Effect on Albumin in Urine of db/db Mice with Type 2 Diabetes
db/db Mice (male, 8-week old) with type 2 diabetes were used for the test. The albumin concentrations in urine samples obtained by urine collection for 24 hours were measured by an ELISA method using an anti-mouse albumin antibody (RAM/Alb/7S, Nordic Immunology), and the creatinine concentration in urine was measured using CRE-EN Kainos (Kainos Co., Ltd.). The albumin-creatinine ratio (ACR) in urine was calculated, and a group (n=12) not treated with the test compound and a group (n=12) treated with the test compound were allocated without a bias in ACR. The test compound suspended in a 0.5% methyl cellulose (MC) solution was orally administered to the group treated with the test compound at a dose of 0.3 mg/kg once per day for one week (10 mL/kg). […] Urine was collected for 24 hours from the completion of the final administration, and using the calculated ACR as an indicator, the improvement effect of the test compound on the early nephropathy of the mice with type 2 diabetes was investigated. The inhibitory rate of ACR of the group treated with the test compound by taking the ACR value of the group not treated with the test compound as 100% was determined.

rat EP3 receptor = target: T1, rat EP3 receptor (Rattus norvegicus, UniProt P34980); assay: Selectivity test: antagonistic action on rat EP3 receptor (intracellular Ca2+, HEK-293 cells); type: cell-based; settings: PGE2 100 nmol/L, HEK-293 cells stably expressing rat EP3; read-out: Concentration up to which no inhibitory action of 50% or more on the increase in intracellular Ca2+ concentration due to PGE2 through the rat EP3 receptor
T1 construct: expressed in transfected cells
T1 sequence (P34980 1-365): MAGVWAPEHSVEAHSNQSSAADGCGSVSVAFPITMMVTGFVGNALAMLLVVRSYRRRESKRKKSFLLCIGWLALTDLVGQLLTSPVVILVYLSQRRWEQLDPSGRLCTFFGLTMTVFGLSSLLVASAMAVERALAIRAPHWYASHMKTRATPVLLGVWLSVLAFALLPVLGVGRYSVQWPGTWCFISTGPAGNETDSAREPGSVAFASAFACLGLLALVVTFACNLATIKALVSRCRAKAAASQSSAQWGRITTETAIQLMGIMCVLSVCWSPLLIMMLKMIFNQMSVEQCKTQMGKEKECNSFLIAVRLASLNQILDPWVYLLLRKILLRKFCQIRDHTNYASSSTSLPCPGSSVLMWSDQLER
Description: Test Example 9: Evaluation Test of Receptor Antagonistic Action on Rat EP1/EP2/EP3 Receptor (Selectivity Test)
The antagonistic action of Compound A on other subtypes ([…], EP2, and EP3) of the rat-derived PGE2 receptor was evaluated. For EP1 and EP3, the intracellular Ca^2+ amount was used as an indicator, and for EP2, the intracellular cAMP amount was used as an indicator, so as to investigate the action of the test compound.
Construction of Rat EP1, EP2, or EP3 Receptor Expressing Vector: A rat EP1 receptor gene (GenBank accession No.: D88751.1), a rat EP2 receptor gene (GenBank accession No.: NM_031088.1), or a rat EP3 receptor gene (GenBank accession No.: NM_012704.1) were inserted respectively into an expression vector pcDNA3.1-V5-His-TOPO (Invitrogen Inc.).
Construction of Cell Stably Expressing Rat EP1, EP2, or EP3 Receptor: […]
The intracellular Ca^2+ concentration was measured using FLIPR tetra (Molecular Devices, LLC.) with the fluorescence intensity of the Dye as an indicator. […] By taking the Ca^2+ concentration when PGE2 was added to a final concentration of 100 nmol/L as 100%, and taking the Ca^2+ concentration when PGE2 was not added as 0%, the Ca^2+ concentration in percentage with a treatment with the compound was calculated.

SD rats = assay: Evaluation on rat gastrointestinal disorder (7-day oral administration, hematology, blood chemistry, histopathology); type: in vivo; settings: 3 mg/kg po for 7 days
Description: Test Example 10: Evaluation on Rat Gastrointestinal Disorder
SD rats (male, 7-week old) were used. A test compound dissolved in a mixed solution of PEG 400: 20% Tween 80: 1 mol/L aqueous NaHCO3 solution=1:4:5 was orally administered at a dose of 3 mg/kg (n=5, 5 mL/kg) for 7 days. The aforementioned mixed liquid was orally administered to a group not treated with the test drug (n=5) at a volume of 5 mL/kg for 7 days. Blood was collected under fasting overnight for hematology and blood chemistry tests on the following day after the final administration. After blood collection, the animal which had been euthanized by exsanguination was immediately necropsied, and the stomach, duodenum, jejunum, ileum, cecum, colon, rectum, and liver were excised therefrom. The excised organs were fixed in a 10% neutral buffered formalin solution and used for histopathological evaluation.

- IC50 (rat EP3 receptor): > 10 µM
- Findings indicating abnormality (hematology, blood chemistry, histopathology of gastrointestinal organs and liver) (SD rats): not observed
SMILES: Cc1nn(Cc2cc3ccccc3cn2)c(C(=O)N[C@@H](C)c2ccc(C(=O)O)cc2)c1Br [Compound A, 4-[(1S)-1-({[4-bromo-1-(isoquinolin-3-ylmethyl)-3-methyl-1H-pyrazol-5-yl]carbonyl}amino)ethyl]benzoic acid]
- Inhibitory rate of ACR (albumin-creatinine ratio in urine) [1]: 44%
